# Settings: buffer; pH 7.4; 200.0 µM
row,SMILES,solubility kinetic [µg/mL]
1,O=C(Nc1ccc(Cl)cc1Cl)N1CCN(c2ncccn2)CC1,> 52.8
2,Cc1nc(CSc2n[nH]c(=O)n2-c2cccc(F)c2)cs1,> 48.4
3,CCOC(=O)c1c(C)[nH]c(C(=O)C(C)N2CCCC2)c1C (stereo unspecified),37
4,O=C(CSc1nnc2ccccn12)NCCc1ccc(F)cc1,> 49.6
5,COc1ccc(NC(=S)Nc2cc(C(F)(F)F)ccc2F)cc1,8.7
6,CCC(C)c1ccc(S(=O)(=O)N2CCN3CCCC3C2)cc1 (stereo unspecified),34.1
7,Cc1ccc(C(=O)O)cc1N=Nc1c(O)[nH]c(=O)[nH]c1=O,> 43.5
8,O=[N+]([O-])c1ccc(Cl)c(S(=O)(=O)/N=C(/Nc2cccnc2)c2ccccc2)c1,> 62.5
9,Cc1ccccc1NC(=O)c1cc2ccccc2o1,33.7
10,O=C(Nc1nonc1-c1ccc(Cl)cc1)c1ccccc1,0.7
11,COc1ccc(NC(=O)CCN2CCOCC2)c(OC)c1,> 44.2
12,CC(C(=O)Nc1cc(Cl)cc(Cl)c1)N1CCCC1 (stereo unspecified),> 43.1
13,O=C(Nc1cc(C(F)(F)F)ccc1Cl)c1cccnc1,32.7
14,O=C(Nc1ccc2ccccc2c1)c1ccc2[nH]c(=O)c(=O)[nH]c2c1,4.3
15,O=C(CSc1nc(-c2ccccc2)ns1)N1CCOCC1,1
16,COc1cnc(-c2ccccc2)nc1Oc1ccc(Cl)cc1C,< 0.3
17,Cc1ccc(C(=O)N=c2sccn2C)cc1C,10
18,O=C(O)/C=C/c1ccc(S(=O)(=O)Nc2cccnc2)cc1,> 45.6
19,COc1ccc(S(=O)(=O)N2CCc3ccccc3C2)cc1C(=O)O,48.4
20,Cc1ccccc1-n1c(=S)[nH]c2nc3c(cc2c1=O)COC(C)(C)C3,30.7
21,NS(=O)(=O)c1cccc(NC(=O)CN2C(=O)C(=O)N(Cc3ccccc3)C2=O)c1,60.5
22,O=C(/C=C/c1ccco1)N1CCc2ccccc21,31.4
23,CCn1c(NC(=O)C(C)C)c2ccccc2nc1=O,> 38.9
24,CCOC(=O)c1cncc(O)c1,> 25.1
25,CN(Cc1ccccc1)C(=O)CC(=O)N(C)Cc1ccccc1,> 46.6

row,SMILES,solubility kinetic [µg/mL]
1,Cc1ccc(N2CC(C(=O)NCc3ccco3)CC2=O)cc1Cl (stereo unspecified),30.8
2,Cc1cc(C)c(C)c(S(=O)(=O)Nc2cccnc2)c1C,3.6
3,O=C(NCCS(=O)(=O)N1CCCCC1)c1ccccc1,> 44.5
4,O=C(Nc1ccnc(-c2ccncc2)n1)c1ccccc1Cl,0.9
5,CNc1nccc(-c2ccc(Cl)cc2)c1C#N,1.5
6,O=C(NC(=S)NCCCN1CCOCC1)c1ccco1,> 44.6
7,Cc1ccc(NC(=O)C2OCCc3ccccc32)cc1Cl (stereo unspecified),< 0.6
8,Cc1c[n+](CC(=O)c2ccccc2)cs1.[Br-],44.3
9,Cc1ccnc(N/C=C/C(=O)c2ccc(Br)cc2)c1,< 0.3
10,CCc1cccc(OCC2Cn3c(nc4c3c(=O)n(C)c(=O)n4C)O2)c1 (stereo unspecified),28.2
11,COC(=O)c1ccc(C(=O)N=c2sccn2C)cc1,13.9
12,CN(CC(=O)Nc1c(F)cccc1F)Cc1cccs1,> 44.5
13,O=C(O)C1CCCN(C(=O)c2cccc3ccccc23)C1 (stereo unspecified),> 42.5
14,Cc1noc(C)c1C(=O)OCC(=O)N(C)C1CCS(=O)(=O)C1 (stereo unspecified),> 49.6
15,Cc1ccc(SCC(=O)NCc2ccc(F)cc2)cc1,9.5
16,CC(=O)NS(=O)(=O)c1ccc(NC(=S)Nc2ccccc2)cc1,> 52.4
17,COc1ccccc1OCCNC(=O)CCS(=O)(=O)c1ccccc1,> 54.5
18,O=C(O)c1cncc(C#CCC2CCCCC2)c1,34.8
19,COc1cccc(NC(=O)COC(=O)/C=C/c2ccco2)c1,30.5
20,CCC(CC)C(=O)Nc1nnc(SCC(=O)NC(C)(C)C)s1,> 51.7
21,O=[N+]([O-])c1cccc(-c2nc(-c3ccccn3)no2)c1,6.4
22,Fc1cnc(Cl)nc1NC1CCCCC1,27.1
23,Cc1ccc(/C=N/N2CCOCC2)s1,> 31.5
24,O=C(CCNC(=O)c1ccc(Br)cc1)Nc1ccc(S(=O)(=O)N2CCOCC2)cc1,5.3
25,CCOc1ccc(OCCn2c(=S)[nH]c3c(N)ncnc32)cc1,20.1

row,SMILES,solubility kinetic [µg/mL]
1,COC(=O)CCCNC(=O)c1ccc2[nH]c(C)c(C)c2c1,> 43.3
2,N#CCCN(Cc1ccccc1)C(=O)c1nccnc1C(=O)O,> 46.5
3,Nc1cc(C(F)(F)F)ccc1NCCc1ccccn1,36.8
4,Cc1ccc(OCc2ccccc2C)c([N+](=O)[O-])n1,18.4
5,Nc1cc(N)nc(SCCc2ccccc2)n1,> 36.9
6,COc1ccc(CCC(=O)Nc2ncc(C)s2)cc1OC,1.8
7,CN(C)/C(=N\S(=O)(=O)c1ccc(F)cc1)c1ccccc1,> 46
8,O=C1CSC(c2ccccc2F)N1 (stereo unspecified),> 29.6
9,Cc1nc(C)n(C)c(=O)c1-c1ccccc1,> 32.1
10,CCOC(=O)C1CCN(S(=O)(=O)c2ccc(Cl)nc2)CC1,47.3
11,O=C(c1ccccc1)N1CCN(S(=O)(=O)N2CCCCCC2)CC1,> 52.7
12,COC(=O)[C@@H](NC(=O)N1CCC(C)CC1)C(C)C,34
13,O=C(NC1CCCCCCC1)c1cc([N+](=O)[O-])ccc1Cl,8.5
14,CC1(C)CN=C(Nc2ccc(F)c(Cl)c2)S1,0.8
15,COc1ccc(-c2noc(-c3ccoc3C)n2)cc1OC,0.8
16,COc1ccc(CNCc2cccc(C)c2)cc1.O=C(O)C(=O)O,> 49.7
17,O=C(NC1CCCCCCC1)c1ccc(F)cc1,25.8
18,CCC(=O)N(CCC1(c2ccccc2OC)CCOC(C(C)C)C1)Cc1ccco1 (stereo unspecified),21.4
19,CCOC(=O)c1c(N=CN(C)C)c2cc([N+](=O)[O-])cnc2n1C,35
20,NC(=O)NC(=O)C(Nc1ccc2c(c1)CCC2)c1ccccc1 (stereo unspecified),7.9
21,CCCN(CC1CC1)C(=O)CSc1ncnc2sccc12,> 48.2
22,COC(=O)CN1C(=O)N/C(=C/c2ccc(OC)c(C)c2OC)C1=O,4
23,Cc1cc(C)c(C(N)=O)c(Nc2ccc(F)cc2)n1,> 38.9
24,COc1cccc(CNc2nccs2)c1O,> 35.4
25,CCn1c(SCC(=O)NCC2CCCO2)nc2ccccc21 (stereo unspecified),> 47.9

row,SMILES,solubility kinetic [µg/mL]
1,CC1=C(C)C(OCCBr)N(c2cc(O)c(Cl)cc2F)C1=O (stereo unspecified),> 56.8
2,O=C(C[n+]1ccccc1)Nc1ccc(Oc2ccccc2)cc1.[Cl-],> 51.1
3,Cc1ccc(S(=O)(=O)N2CCC(C(=O)OCC(=O)NCc3cccc(Cl)c3)CC2)cc1C,11
4,Cc1cccc(NC(=O)Nc2ccc(OCc3ccccc3)cc2)n1,< 0.2
5,CC(=O)N1C(C(=O)O)Cc2c([nH]c3ccccc23)C1C (stereo unspecified),> 40.8
6,COc1ccc(OC)c(CC(=O)Nc2ccc3c(c2)CCC3)c1,4.1
7,O=C(Nc1cccc(Cl)c1)c1cnc[nH]1,> 33.2
8,O=C(c1ccco1)N1CCn2cccc2C1c1ccccc1 (stereo unspecified),42
9,CCCOc1ccc(N2C(=O)C3C4C=CC(CC4)C3C2=O)cc1 (stereo unspecified),4.6
10,Cc1occc1C(=O)Nc1ccccc1C#N,> 33.9
11,CCOC(=O)c1csc(N)c1-c1ccc([N+](=O)[O-])cc1,5.5
12,NC(=O)c1ccc(NC(=O)C2CCCC2)cc1,> 34.8
13,COc1cccc(NC(=O)C2CCN(c3cnccn3)CC2)c1,> 46.9
14,CC(C)(C)c1ccc(C(CC(=O)O)NC(=O)Cc2ccccc2)cc1 (stereo unspecified),49.3
15,CC(=O)Nc1ccc(NC(=O)c2ccc(COc3ccccc3)cc2)cc1,0.6
16,O=C(Cn1c(=O)cnc2ccccc21)Nc1cc(Cl)ccc1N1CCOCC1,51.6
17,CC(C)(C)NC(=S)N1CCC(C(=O)c2ccc(F)cc2)CC1,5.2
18,C/C(=N/NC(=O)c1ccccn1)c1ccncc1,> 36
19,CCN(CC)CC(O)CCCCCCCCC(=O)OC.Cl (stereo unspecified),> 48.6
20,OCC1(CO)COC(c2ccccc2)=N1,> 31.1
21,CN(C)C(=O)c1ccc(OCC(F)(F)F)nc1,36.7
22,O=C(O)CNc1nc(-c2ccccc2)nc2c1oc1ccccc12,> 47.9
23,CN(C(=O)CN1CCN(c2ccc([N+](=O)[O-])cn2)CC1)c1ccccc1,> 53.3
24,Cc1cccc(NC(=O)Nc2c(C)[nH]c(=O)[nH]c2=O)c1C,5.2
25,COc1ccc(-c2nc3ncccc3o2)cc1NC(=O)c1cccs1,0.3

row,SMILES,solubility kinetic [µg/mL]
1,Cc1csc(NC(=O)CS(=O)(=O)c2ccccc2)n1,44.3
2,CCc1c(C)c2ccc(O)c(CN3CCCC3)c2oc1=O,41.6
3,CCN(CC)c1ccc(NC(=S)Nc2ccc(F)cc2)cc1,9
4,O=C1CCCc2c1nc(-c1ccc(F)cc1)n2O,> 36.9
5,CN(C)C(=O)C12CCC(C)(C(=O)C1Br)C2(C)C (stereo unspecified),> 45.3
6,Cc1ccc(CNC(=O)c2cccnc2)cc1,> 33.9
7,CSc1ncccc1C(=O)N1CCN(S(=O)(=O)c2ccc3c(c2)OCCO3)CC1,> 65.3
8,Cc1ccsc1C(=O)OCC(=O)NCc1ccc(Cl)cc1,4.5
9,O=C(Nc1ccccc1)C1CCN(C(=O)c2ccco2)CC1,> 44.8
10,CCOCCCNC(=O)C1CC(=O)N(CCc2ccc(C)cc2)C1 (stereo unspecified),> 49.9
11,Fc1ccc(CNc2ccc(N3CCN(Cc4ccccc4)CC3)cc2)cc1,14.6
12,CC(=O)N(CCC(c1ccco1)C(C)C)Cc1ccc(Cl)cc1 (stereo unspecified),16.4
13,COC(=O)c1ccc(N2CCN(C)CC2)c(NC(=O)c2cccs2)c1,> 53.9
14,O=C(CNS(=O)(=O)c1ccccc1)N1CCCC1,> 40.2
15,CC(=O)N1CCN(C(=O)c2ccc(Cl)c(S(=O)(=O)N3CC(C)OC(C)C3)c2)CC1 (stereo unspecified),> 66.6
16,C[C@@H]1CN(Cc2nc(-c3cnccn3)no2)C[C@H](C)O1,30.8
17,COc1ccccc1N1C(=O)C(Cl)=C(N2CCCC2)C1=O,9.4
18,CC1CC(C)CN(C(=O)COC(=O)c2ccc(Cl)nc2)C1 (stereo unspecified),> 46.6
19,C/C(=N\n1c(C)nc2ccccc2c1=O)c1ccc(C)o1,> 42.2
20,Cc1nn(C)c(C)c1NS(=O)(=O)c1ccc(Cl)cc1,> 45
21,COc1c2c(nc3occc13)C(CC=C(C)C)(OC)C(=O)C=C2 (stereo unspecified),> 47
